# Tests used:
# albumin [1] = target: T1, albumin (Homo sapiens, UniProt P02768); assay: pH dependence of binding affinity for albumin
# From the text: Adjusting the pH of the fluids to the acidic and/or basic range makes it possible to selectively influence the binding of different substances to the respective carrier proteins or adsorbers. […] For example, the binding of copper ions to albumin can be weakened in this way so that free, dissolved copper ions in the following filter can be removed by dialysis, filtration, diafiltration, centrifugation, a field, or sorting by weight difference. Analogously, the pH of the fluid can be adjusted to the basic range so that the toxins liberated in the alkaline range can then be eliminated from the fluid by dialysis, filtration or diafiltration. […] A pH range of 8-13 is often preferred.
# Devices for adjusting the pH include especially devices for adding acid or base, for example metering pumps. Appropriate acids or bases arc aqueous solutions of biologically compatible acids or bases. It is generally preferable to use acids or bases whose conjugate bases or acids are ions that occur naturally in the human organism. Examples of acids which can be used are hydrochloric acid, sulfuric acid or acetic acid, hydrochloric acid being preferred. Examples of bases which can be used are sodium hydroxide solution or potassium hydroxide solution, sodium hydroxide solution being preferred. […]
# albumin [2] = target: T1, albumin; details: binding to albumin; reported association constants; cited from earlier work
# T1 sequence (P02768 25-609): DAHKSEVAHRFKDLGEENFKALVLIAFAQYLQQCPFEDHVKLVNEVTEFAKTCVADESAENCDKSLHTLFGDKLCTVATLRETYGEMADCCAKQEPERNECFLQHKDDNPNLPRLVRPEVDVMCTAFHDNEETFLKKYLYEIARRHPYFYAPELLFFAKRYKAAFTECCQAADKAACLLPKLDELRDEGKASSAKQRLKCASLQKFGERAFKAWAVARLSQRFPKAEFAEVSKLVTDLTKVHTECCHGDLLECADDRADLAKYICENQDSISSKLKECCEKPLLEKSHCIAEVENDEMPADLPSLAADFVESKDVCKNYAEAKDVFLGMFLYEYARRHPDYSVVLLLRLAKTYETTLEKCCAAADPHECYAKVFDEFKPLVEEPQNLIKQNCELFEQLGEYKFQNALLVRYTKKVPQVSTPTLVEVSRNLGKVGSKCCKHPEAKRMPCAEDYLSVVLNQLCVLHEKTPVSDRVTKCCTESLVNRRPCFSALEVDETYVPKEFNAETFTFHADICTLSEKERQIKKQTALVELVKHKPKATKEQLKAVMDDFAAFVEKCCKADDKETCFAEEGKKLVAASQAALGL
Molecule,binding affinity for albumin (albumin [1]; pH above about 3),binding affinity for albumin (albumin [1]; pH range around 2),"Association constant, KA (albumin [2])"
Copper(II),particularly high binding affinity,significantly lowered,1.5e+16 M⁻¹
"C=C1CC[C@H](O)C/C1=C/C=C1\CCC[C@]2(C)[C@@H]([C@H](C)CCCC(C)(C)O)CC[C@@H]12 [25,OH—VitaminD3]",,,600000 M⁻¹
"CCCCC[C@H](O)/C=C/[C@H]1[C@H](O)CC(=O)[C@@H]1CCCCCCC(=O)O [Eicosanoids (PGE1), PGE1]",,,70000 M⁻¹
t-25-(OH)2—Vitamin D3,,,50000 M⁻¹
CC(=O)[C@H]1CC[C@H]2[C@@H]3CCC4=CC(=O)CC[C@]4(C)[C@H]3CC[C@]12C [Progesterone],,,360000 M⁻¹
[Zn+2] [Zinc(II)],,,3.4e+07 M⁻¹
C[C@]12CCC(=O)C=C1CC[C@@H]1[C@@H]2[C@@H](O)C[C@]2(C=O)[C@@H](C(=O)CO)CC[C@@H]12 [Aldosterone],,,3200 M⁻¹
[Ca+2] [Calcium],,,1510 M⁻¹
C[C@]12CCC(=O)C=C1CC[C@@H]1[C@@H]2[C@@H](O)C[C@@]2(C)[C@H]1CC[C@]2(O)C(=O)CO [Cortisol],,,5000 M⁻¹
[Mg+2] [Magnesium],,,100 M⁻¹
Cl [Chloride],,,720 M⁻¹
C[C@]12CC[C@H]3[C@@H](CCC4=CC(=O)CC[C@@]43C)[C@@H]1CC[C@@H]2O [Testosterone],,,24000 M⁻¹
C/C1=C2N=C(/C=C3N=C(/C(C)=C4\[N-]C(C(CC(N)=O)C4(C)CCC(=O)NCC(C)OP(=O)([O-])OC4C(CO)OC(n5cnc6cc(C)c(C)cc65)C4O)C4(C)N=C1C(CCC(N)=O)C4(C)CC(N)=O)C(CCC(N)=O)C\3(C)C)C(CCC(N)=O)C/2(C)CC(N)=O.O.[Co+3].[OH-] (centres unmarked) [Aquocobalamin],,,2e+07 M⁻¹
C=CC1=C(C)c2cc3[n-]c(cc4[n-]c(cc5nc(cc1n2)C(C)=C5C=C)c(C)c4CCC(=O)O)c(CCC(=O)O)c3C.O.[Fe+2] [Hematin],,,1.1e+08 M⁻¹
N[C@@H](Cc1c[nH]c2ccccc12)C(=O)O [L-tryptophan],,,10000 M⁻¹

# From patent US11351291B2, “Systems or apparatuses and methods for performing dialysis” (ADVITOS GMBH, priority 2016, dated 2022)
